Measured values: PubChem BioAssay AID1963838 (Molecular Pharmacology Branch, DTP, NCI, 2024)

Test system: 855422-203-R-J1-PDC complex spheroid viability
Assay: Anticancer human tumor 855422-203-R-J1-PDC patient-derived bladder carcinoma cell line growth inhibition [POLQ]
Conditions: for IC50: curve of first compound; for viability, T/C: stronger effect = lower value
Procedure, shortened: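 Complex spheroid viability model combining PDC tumour cells with endothelial (HUVEC) and MSC stromal cells. Novobiocin, ART-558 or RP6685 were tested singly and in combination with standard and investigational anticancer drugs. Each was titrated in half-log steps from near clinical Cmax, or from 10 microM where Cmax was unknown.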

[1] = second compound 0.0316 µM, first compound 0.00316 µM
[2] = second compound 0.0316 µM, first compound 0.01 µM
[3] = second compound 0.0316 µM, first compound 0.0316 µM
[4] = second compound 0.0316 µM, first compound 0.1 µM
[5] = second compound 0.1 µM, first compound 0.00316 µM
[6] = second compound 0.1 µM, first compound 0.01 µM
[7] = second compound 0.1 µM, first compound 0.0316 µM
[8] = second compound 0.1 µM, first compound 0.1 µM
[9] = second compound 0.316 µM, first compound 0.00316 µM
[10] = second compound 0.316 µM, first compound 0.01 µM
[11] = second compound 0.316 µM, first compound 0.0316 µM
[12] = second compound 0.316 µM, first compound 0.1 µM
[13] = second compound 1 µM, first compound 0.00316 µM
[14] = second compound 1 µM, first compound 0.01 µM
[15] = second compound 1 µM, first compound 0.0316 µM
[16] = second compound 1 µM, first compound 0.1 µM
[17] = second compound 3.16 µM, first compound 0.00316 µM
[18] = second compound 3.16 µM, first compound 0.01 µM
[19] = second compound 3.16 µM, first compound 0.0316 µM
[20] = second compound 3.16 µM, first compound 0.1 µM
[21] = second compound 10 µM, first compound 0.00316 µM
[22] = second compound 10 µM, first compound 0.01 µM
[23] = second compound 10 µM, first compound 0.0316 µM
[24] = second compound 10 µM, first compound 0.1 µM
[25] = second compound 0.0316 µM, first compound 0.316 µM
[26] = second compound 0.0316 µM, first compound 1 µM
[27] = second compound 0.1 µM, first compound 0.316 µM
[28] = second compound 0.1 µM, first compound 1 µM
[29] = second compound 0.316 µM, first compound 0.316 µM
[30] = second compound 0.316 µM, first compound 1 µM
[31] = second compound 1 µM, first compound 0.316 µM
[32] = second compound 1 µM, first compound 1 µM
[33] = second compound 3.16 µM, first compound 0.316 µM
[34] = second compound 3.16 µM, first compound 1 µM
[35] = second compound 10 µM, first compound 0.316 µM
[36] = second compound 10 µM, first compound 1 µM
[37] = second compound 0.0316 µM, first compound 3.16 µM
[38] = second compound 0.0316 µM, first compound 10 µM
[39] = second compound 0.1 µM, first compound 3.16 µM
[40] = second compound 0.1 µM, first compound 10 µM
[41] = second compound 0.316 µM, first compound 3.16 µM
[42] = second compound 0.316 µM, first compound 10 µM
[43] = second compound 1 µM, first compound 3.16 µM
[44] = second compound 1 µM, first compound 10 µM
[45] = second compound 3.16 µM, first compound 3.16 µM
[46] = second compound 3.16 µM, first compound 10 µM
[47] = second compound 10 µM, first compound 3.16 µM
[48] = second compound 10 µM, first compound 10 µM
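Further: spheroids exposed to compounds for seven days before readout.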

Work on `CC[C@@]1(O)C(=O)OCc2c1cc1n(c2=O)Cc2cc3c(CN(C)C)c(O)ccc3nc2-1` + COC1C(OC(N)=O)C(O)C(Oc2ccc3c(O)c(NC(=O)c4ccc(O)c(CC=C(C)C)c4)c(=O)oc3c2C)OC1(C)C yielded an IC50 (second compound 0.0316 µM) of 35.2 nM, an IC50 (second compound 0.1 µM) of 30.3 nM and an IC50 (second compound 0.316 µM) of 30.2 nM. For the same compound, the IC50 (second compound 1 µM) was 27.7 nM, the IC50 (second compound 3.16 µM) was 23.3 nM and the IC50 (second compound 10 µM) was 22.5 nM. It also gave a viability, T/C (second compound 0.0316 µM, first compound 0.000316 µM) of 125%, a viability, T/C (second compound 0.0316 µM, first compound 0.001 µM) of 123% and a viability, T/C [1] of 116%. For the same compound, the viability, T/C [2] was 126%, the viability, T/C [3] was 53.5% and the viability, T/C [4] was 14.7%. The viability, T/C (second compound 0.1 µM, first compound 0.000316 µM) was 108%, the viability, T/C (second compound 0.1 µM, first compound 0.001 µM) was 111% and the viability, T/C [5] was 104%. For the same compound, the viability, T/C [6] was 113%, the viability, T/C [7] was 47.8% and the viability, T/C [8] was 11.8%. The viability, T/C (second compound 0.316 µM, first compound 0.000316 µM) was 116%, the viability, T/C (second compound 0.316 µM, first compound 0.001 µM) was 110% and the viability, T/C [9] was 122%. The viability, T/C [10] was 101%, the viability, T/C [11] was 48.2% and the viability, T/C [12] was 11.7%. The viability, T/C (second compound 1 µM, first compound 0.000316 µM) was 116%, the viability, T/C (second compound 1 µM, first compound 0.001 µM) was 124% and the viability, T/C [13] was 112%. The viability, T/C [14] was 91.7%, the viability, T/C [15] was 44.7% and the viability, T/C [16] was 10.6%. It also gave a viability, T/C (second compound 3.16 µM, first compound 0.000316 µM) of 112%, a viability, T/C (second compound 3.16 µM, first compound 0.001 µM) of 108% and a viability, T/C [17] of 109%. The viability, T/C [18] was 112%, the viability, T/C [19] was 28.4% and the viability, T/C [20] was 11.7%. It also gave a viability, T/C (second compound 10 µM, first compound 0.000316 µM) of 117%, a viability, T/C (second compound 10 µM, first compound 0.001 µM) of 107% and a viability, T/C [21] of 117%. The viability, T/C [22] was 98.9%, the viability, T/C [23] was 29.6% and the viability, T/C [24] was 16.2%.
`CCc1c2c(nc3ccc(O)cc13)-c1cc3c(c(=O)n1C2)COC(=O)[C@]3(O)CC` + COC1C(OC(N)=O)C(O)C(Oc2ccc3c(O)c(NC(=O)c4ccc(O)c(CC=C(C)C)c4)c(=O)oc3c2C)OC1(C)C gave an IC50 (second compound 0.0316 µM) of under 3.16 nM, an IC50 (second compound 0.1 µM) of under 3.16 nM and an IC50 (second compound 0.316 µM) of under 3.16 nM. The IC50 (second compound 1 µM) was under 3.16 nM, the IC50 (second compound 3.16 µM) was under 3.16 nM and the IC50 (second compound 10 µM) was under 3.16 nM. The viability, T/C [1] was 40.8%, the viability, T/C [2] was 16.8% and the viability, T/C [3] was 7.82%. The viability, T/C [4] was 5.58%, the viability, T/C [25] was 4.71% and the viability, T/C [26] was 1.63%. For the same compound, the viability, T/C [5] was 40.5%, the viability, T/C [6] was 14.3% and the viability, T/C [7] was 8.6%. It also gave a viability, T/C [8] of 6.16%, a viability, T/C [27] of 3.09% and a viability, T/C [28] of 1.68%. For the same compound, the viability, T/C [9] was 42.7%, the viability, T/C [10] was 15.7% and the viability, T/C [11] was 9.73%. For the same compound, the viability, T/C [12] was 5.82%, the viability, T/C [29] was 4.86% and the viability, T/C [30] was 1.54%. It also gave a viability, T/C [13] of 33.4%, a viability, T/C [14] of 14.5% and a viability, T/C [15] of 9.49%. For the same compound, the viability, T/C [16] was 5.81%, the viability, T/C [31] was 3.09% and the viability, T/C [32] was 2.46%. For the same compound, the viability, T/C [17] was 26.4%, the viability, T/C [18] was 11.5% and the viability, T/C [19] was 8.08%. The viability, T/C [20] was 4.59%, the viability, T/C [33] was 2.7% and the viability, T/C [34] was 1.71%. It also gave a viability, T/C [21] of 14.7%, a viability, T/C [22] of 11.2% and a viability, T/C [23] of 7.82%. The viability, T/C [24] was 6.39%, the viability, T/C [35] was 3.19% and the viability, T/C [36] was 1.43%.
Compound `Nc1ccn(C2OC(CO)C(O)C2(F)F)c(=O)n1` (stereo not drawn) + COC1C(OC(N)=O)C(O)C(Oc2ccc3c(O)c(NC(=O)c4ccc(O)c(CC=C(C)C)c4)c(=O)oc3c2C)OC1(C)C has an IC50 (second compound 0.0316 µM) of 43.7 nM, an IC50 (second compound 0.1 µM) of 48.2 nM and an IC50 (second compound 0.316 µM) of 65.4 nM. The IC50 (second compound 1 µM) was 58.8 nM, the IC50 (second compound 3.16 µM) was 68.1 nM and the IC50 (second compound 10 µM) was 65.8 nM. It also gave a viability, T/C [3] of 57.1%, a viability, T/C [4] of 31.7% and a viability, T/C [25] of 11.5%. It also gave a viability, T/C [26] of 9.46%, a viability, T/C [37] of 7.57% and a viability, T/C [38] of 6.26%. The viability, T/C [7] was 60.2%, the viability, T/C [8] was 32.2% and the viability, T/C [27] was 10.7%. The viability, T/C [28] was 8.44%, the viability, T/C [39] was 7.41% and the viability, T/C [40] was 6.76%. It also gave a viability, T/C [11] of 78.4%, a viability, T/C [12] of 33.5% and a viability, T/C [29] of 11.3%. For the same compound, the viability, T/C [30] was 8.38%, the viability, T/C [41] was 8.35% and the viability, T/C [42] was 5.06%. For the same compound, the viability, T/C [15] was 72.4%, the viability, T/C [16] was 31% and the viability, T/C [31] was 12.2%. For the same compound, the viability, T/C [32] was 9.87%, the viability, T/C [43] was 6.93% and the viability, T/C [44] was 6.4%. The viability, T/C [19] was 75.4%, the viability, T/C [20] was 37.3% and the viability, T/C [33] was 9.1%. It also gave a viability, T/C [34] of 9.44%, a viability, T/C [45] of 10.2% and a viability, T/C [46] of 6.39%. It also gave a viability, T/C [23] of 72.8%, a viability, T/C [24] of 37% and a viability, T/C [35] of 11.5%. It also gave a viability, T/C [36] of 11.4%, a viability, T/C [47] of 7.42% and a viability, T/C [48] of 5.66%.
`O=C(c1cc(Cc2n[nH]c(=O)c3ccccc23)ccc1F)N1CCN(C(=O)C2CC2)CC1` + COC1C(OC(N)=O)C(O)C(Oc2ccc3c(O)c(NC(=O)c4ccc(O)c(CC=C(C)C)c4)c(=O)oc3c2C)OC1(C)C gave an IC50 (second compound 0.0316 µM) of over 10000 nM, an IC50 (second compound 0.1 µM) of over 10000 nM and an IC50 (second compound 0.316 µM) of over 10000 nM. The IC50 (second compound 1 µM) was over 10000 nM, the IC50 (second compound 3.16 µM) was over 10000 nM and the IC50 (second compound 10 µM) was over 10000 nM. The viability, T/C [3] was 107%, the viability, T/C [4] was 107% and the viability, T/C [25] was 122%. For the same compound, the viability, T/C [26] was 90.8%, the viability, T/C [37] was 95.6% and the viability, T/C [38] was 78.8%. For the same compound, the viability, T/C [7] was 93.3%, the viability, T/C [8] was 111% and the viability, T/C [27] was 109%. It also gave a viability, T/C [28] of 104%, a viability, T/C [39] of 93.8% and a viability, T/C [40] of 83.7%. The viability, T/C [11] was 95.9%, the viability, T/C [12] was 105% and the viability, T/C [29] was 102%. The viability, T/C [30] was 114%, the viability, T/C [41] was 101% and the viability, T/C [42] was 67.2%. The viability, T/C [15] was 108%, the viability, T/C [16] was 101% and the viability, T/C [31] was 95.5%. It also gave a viability, T/C [32] of 118%, a viability, T/C [43] of 95.8% and a viability, T/C [44] of 66.9%. It also gave a viability, T/C [19] of 111%, a viability, T/C [20] of 90.8% and a viability, T/C [33] of 106%. The viability, T/C [34] was 105%, the viability, T/C [45] was 91.2% and the viability, T/C [46] was 68.1%. It also gave a viability, T/C [23] of 104%, a viability, T/C [24] of 111% and a viability, T/C [35] of 106%. The viability, T/C [36] was 96.7%, the viability, T/C [47] was 103% and the viability, T/C [48] was 60.2%.
